From the NIST ThermoML archive (doi:10.1016/j.fluid.2016.01.050)
± gives the expanded uncertainty stated by the source.

What was measured:
[1] = 298 K; 101.33 kPa; Liquid; Vibrating tube method
[2] = refractive index (Na D-line) (dimensionless); conditions: 298 K; 101.33 kPa; Liquid; Standard Abbe refractometry

Row | SMILES | mass density [1] [kg/m3] | refractive index [2]
1 | Clc1ccccc1 [chlorobenzene] | 1101.08 ± 0.44 | 1.52165 ± 0.00042
2 | CCCCC(=O)O [pentanoic acid] | 935.04 ± 0.37 | 1.40718 ± 0.00042
3 | CC(O)c1ccccc1 (stereo not drawn) [1-phenylethanol] | 1006.48 ± 0.38 | 1.52467 ± 0.00042
4 | c1ccc(COCc2ccccc2)cc1 [dibenzyl ether] | 1039.32 ± 0.4 | 1.56019 ± 0.00042
